Measured values published in PMC12390126, “Human Skin Permeation of Ethoxy- and Propoxypropanol Commonly Found in Water-Based Products” (Toxics, 2025).
Entries after “also recorded” stand apart in the source; their conditions may differ.

Legend:
[1] = Workplace scenario: estimated internal dose and blood concentration after dermal exposure; set-up: species or system human; settings: 8 h
Experimental: The cumulative amount of PGEE and PGPE in the receptor fluid (µg/cm^2, y-axis) was plotted separately over time (hours, x-axis), and the permeability rate (J), the lag time (Tlag), and the permeability coefficient (Kp) were determined from the generated permeability curve. J (µg/cm^2/h) was calculated as the slope of the steepest linear part of the curve (apparent steady state), and Tlag (h) as its x-axis intercept. Kp (cm/h) was calculated by dividing J with the chemical concentration applied to the skin when diluted in water and with the glycol ether’s density when applied neat. The maximal internal dose in the bloodstream was estimated using the permeability rate obtained for the experiments and calculated as follows:IDmean = J [µg/cm^2/h] × SA [cm^2] × t [h] × P,(1) where IDmean is the mean internal dose of PGEE or PGPE after skin exposure, J is the experimental permeability rate, SA represents the surface area exposed to the solvent, t is the time of exposure, and P represents the average percentage of PGEs in commercialized products. We used the J from the aqueous experiments because PGEs are mostly present in water-based products. The surface area exposed was set to 10.4 cm^2 for the hands alone, and 14.2 cm^2 when including the forearms. The total blood volume used for the blood concentration calculation was 5 L [29]. In Switzerland, paint products on the market for both professional and consumer uses contain, on average, 22.3% of PGEE and/or 5.9% of PGPE [17].
Recreating a workplace scenario, the mean internal dose after one workday for a worker in contact with products containing PGEE or PGPE was estimated based on our results. Mixing tasks are common in companies that use paint products, such as those in the construction and car repair industries. This task usually involves opening containers and mixing large quantities of paint. Workers’ hands, and occasionally forearms, are often contaminated by paint splashes and contact with various painting equipment. Based on our in vitro results and assuming dermal exposure only, after one 8 h workday, with a SA of 10.4 cm^2 and PGEs content of either 22.3% or 5.9%, the mean estimated internal dose for a worker performing a paint mixing task without wearing gloves is 8.3 mg of PGEE (see Equation (1)). This corresponds to a blood concentration of 1.7 mg/L. Under the same conditions, if the worker is exposed to products containing PGPE, the mean estimated internal dose after one workday is 0.9 mg, corresponding to a blood concentration of 0.2 mg/L. The addition of water to the mixture, for example, from perspiration or from the water-based product itself, increases the estimated internal dose to 19.9 mg (3.9 mg/L) for PGEE exposure and 4.1 mg (0.8 mg/L) for PGPE exposure. Some paint products may contain both PGEs mixed with other chemical substances; however, mixtures were not considered in this scenario. Further studies are necessary to investigate the effects of chemical mixtures on glycol ether skin permeation. Furthermore, PGEE and PGPE are volatile organic compounds, so workers can be exposed not only through direct skin contact but also via skin vapor absorption through the skin or inhalation. Therefore, the blood concentrations estimated in our workplace scenario would likely be higher under real working conditions involving all routes of absorption. Since no biological reference values are currently available for these compounds, it is not possible to estimate the potential risks associated with exposure at these blood concentrations. However, due to the high skin permeation of these compounds, workers and consumers must wear appropriate protective equipment to limit their exposure.

[2] = In vitro flow-through diffusion cell skin permeation; type: in vitro ADME, human; settings: for first quantified in the receptor fluid after application: Figure 1A, first 3 h of exposure; for permeability rate J diluted in water compared to neat: aqueous 50:50 versus neat; for time to permeate previously frozen human skin: aqueous PGEs applied
Excerpt: Human abdominal full thickness skin was obtained as surgical waste from the Lausanne University Hospital (CHUV) and the Department of Musculoskeletal Medicine (DAL) Biobank, Switzerland, according to the Swiss ethics in the canton Vaud (CER-VD: Commission cantonal d’éthique de la recherche sur l’être humain, ethical protocol 264/12). The surgeon obtained written consent from the patients before the start of the operation. The collected skin was anonymized, and only sex and age were provided for this study. Human skin was obtained directly after the surgery and immediately dermatomed to a thickness of 800 µm (Acculan®II, B. Braun/Aesculap, Sempach, Switzerland) to account for any potential storage effects on its in vitro mass balance. The experiments were run with triplicate skin samples (n = 3) from three different donors giving a total of nine samples for each experiment. The skin samples used for this study were stored at −20 °C for up to four years. The experiments were performed only when a sufficient number of skin samples was available from three different donors.
The in vitro flow-through diffusion cell experiments were used to assess skin permeation kinetics after neat and aqueous application, separately. The abdominal human frozen skin was thawed for one hour at room temperature and cut into disks (exposed area of 1 cm^2). These were mounted onto the diffusion cells between the donor and the receptor chamber filled with saline water (0.9% NaCl (aq), 8 mL). Four different experimental conditions were used: application of solutions containing either PGEE or PGPE (neat) and application of aqueous solutions of PGEE or PGPE (50:50 v/v mixture). Each experiment was performed with triplicate cells from three different donors ([…] diffusion cells exposed to PGE per experimental condition) and one control cell per skin donor (n = 3 diffusion cells not exposed to PGE). The trans epidermal water loss (TEWL; VapoMeter wireless, Delfin Technologies Ltd., Kuopio, Finland) was measured for each skin disk to assess skin sample integrity. Skin samples with a TEWL greater than 11 g/m^2/h were excluded. TEWL was measured again at the end of each experiment to confirm skin integrity throughout the experiment.
The in vitro flow-through diffusion cell experiments were carried out using a rack-mounted system consisting of nine in-line jacketed flow-through diffusion cells (PermeGear® from SES Analytical System, Bechenheim, Germany). A peristaltic pump (Ismatec IPC-N, IDEX Health and Science GmbH, Wertheim-Mondfeld, Germany) operated at a flow rate of 200 µL/min for the first 180 min to ensure that the transition point—when the glycol ethers reached the receptor fluid—was accurately captured for these rapidly diffusing substances. The pump rate was then adjusted to 40 µL/min for the remaining time until 24 h. These collection times and flow rates were set to achieve steady state. The diffusion cell system was equipped with a magnetic stirrer in each cell to ensure a constant and uniform mixing of the substances in the reservoir fluid. The diffusion cells were kept at 32 °C with a heated water bath (Haake SC 100 Digital Immersion Circulator, Thermo Scientific, Newington, NH, USA). A fraction collector (FC 204, Gilson Inc., Middleton, WI, USA) automatically sampled the reservoir fluid at different time points for 24 h, i.e., at 0.5, 1, 1.5, 2, 2.5, 3, 6, 9, 12, 15, 18, 21, and 24 h. PGPE (>95%) and PGEE (>99%) (Chemic Brunschwig AG, Basel, Switzerland) were applied separately onto the skin samples either neat substances or aqueous solutions (Milli-Q Advantage A10 System, Millipore AG, MerckMillipore, Schaffhouse, Switzerland). We applied 500 µL (aqueous application) and 200 µL (neat application) of them to increase the likelihood of reaching steady state permeation conditions. All collected samples were stored at 4 °C after the experiment. […]

[3] = SA 10.4 cm^2, content 22.3% PGEE or 5.9% PGPE, blood volume 5 L, no added water
[4] = SA 10.4 cm^2, content 22.3% PGEE or 5.9% PGPE, dermal only, no added water
[5] = with addition of water to the mixture, SA 10.4 cm^2, 22.3% PGEE or 5.9% PGPE

SMILES | estimated blood concentration [1, 3] [mg/L] | mean estimated internal dose after one workday [1, 4] [mg] | mean estimated internal dose after one workday [1, 5] [mg] | estimated blood concentration ([1]; with addition of water to the mixture, SA 10.4 cm^2, blood volume 5 L) [mg/L] | first quantified in the receptor fluid after application [2] [min] | permeability rate J diluted in water compared to neat [2] | time to permeate previously frozen human skin [2] [min]
CCCOCC(C)O (stereo not shown) [PGPE, propoxypropanol] | 0.2 | 0.9 | 4.1 | 0.8 | 30 | four times greater; also recorded: more than four times quicker | ≤ 30
CCOCC(C)O (stereo not shown) [PGEE] | 1.7 | 8.3 | 19.9 |  | 30 | double | ≤ 30
